Reference: article PMC9785542, “Discovery of 1-Benzhydryl-Piperazine-Based HDAC Inhibitors with Anti-Breast Cancer Activity: Synthesis, Molecular Modeling, In Vitro and In Vivo Biological Evaluation” (Pharmaceutics, 2022)
Where two headings read alike, the source gives them in different places.

Experiments:
HDAC6 = details: Figure 2; cited from earlier work
[1] = target: T1, Human recombinant N-ter-GST-HDAC-6 (Homo sapiens, UniProt Q9UBN7); assay: HDAC-Glo I/II bioluminogenic enzyme assay, HDAC6; type: biochemical; parameters: GST (N); purchased BPS Bioscience 50006
T1 sequence (Q9UBN7 1-1215): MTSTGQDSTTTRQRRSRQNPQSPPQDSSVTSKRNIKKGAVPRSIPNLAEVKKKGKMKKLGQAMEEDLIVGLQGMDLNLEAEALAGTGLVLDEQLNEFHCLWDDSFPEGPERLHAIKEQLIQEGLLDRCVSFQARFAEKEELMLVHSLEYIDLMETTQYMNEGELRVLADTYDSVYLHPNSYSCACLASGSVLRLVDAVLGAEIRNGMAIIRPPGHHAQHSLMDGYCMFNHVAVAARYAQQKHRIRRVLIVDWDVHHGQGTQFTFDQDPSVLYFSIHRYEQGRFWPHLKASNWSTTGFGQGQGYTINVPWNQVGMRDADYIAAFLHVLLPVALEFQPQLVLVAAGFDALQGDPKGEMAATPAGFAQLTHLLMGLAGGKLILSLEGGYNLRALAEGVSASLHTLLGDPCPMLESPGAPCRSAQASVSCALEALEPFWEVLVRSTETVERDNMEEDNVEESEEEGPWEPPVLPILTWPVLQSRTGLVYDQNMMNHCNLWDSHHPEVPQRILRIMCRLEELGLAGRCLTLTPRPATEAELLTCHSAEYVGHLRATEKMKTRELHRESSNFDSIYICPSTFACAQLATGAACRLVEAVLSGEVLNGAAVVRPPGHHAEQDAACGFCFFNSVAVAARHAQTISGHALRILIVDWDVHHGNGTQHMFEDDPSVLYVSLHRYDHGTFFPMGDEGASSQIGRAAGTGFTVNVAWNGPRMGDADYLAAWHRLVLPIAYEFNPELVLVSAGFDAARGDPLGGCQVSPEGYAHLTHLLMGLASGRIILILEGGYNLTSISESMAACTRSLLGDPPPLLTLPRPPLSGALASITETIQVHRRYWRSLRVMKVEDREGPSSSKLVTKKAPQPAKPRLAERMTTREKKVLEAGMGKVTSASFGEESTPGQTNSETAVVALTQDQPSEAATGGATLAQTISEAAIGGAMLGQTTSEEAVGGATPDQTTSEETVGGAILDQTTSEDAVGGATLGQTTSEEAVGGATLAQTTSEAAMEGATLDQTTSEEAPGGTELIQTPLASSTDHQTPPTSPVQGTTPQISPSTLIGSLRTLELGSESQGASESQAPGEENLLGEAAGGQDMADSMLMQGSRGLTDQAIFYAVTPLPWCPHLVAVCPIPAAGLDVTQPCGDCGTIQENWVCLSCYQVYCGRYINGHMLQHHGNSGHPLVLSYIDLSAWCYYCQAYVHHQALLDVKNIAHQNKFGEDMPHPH

[2] = target: T2, Human recombinant C-ter-His-FLAG-HDAC1 (Homo sapiens, UniProt Q13547); assay: HDAC-Glo I/II bioluminogenic enzyme assay, HDAC1; type: biochemical; details: mean ± SD of three independent experiments; read-out: HDAC Inhibition, IC50 ± SD, HDAC1
T2 construct: His (C); FLAG (C); purchased BPS Bioscience 50051

MDA-MB-231 tumor spheres = assay: 3D tumor sphere model, MTT and imaging; type: cell-based, human; details: for tumor sphere viability: 50 µM, 72 h, formed spheres, MTT
Experimental: MDA-MB-231 cells were seeded at a cell density of 1000 c/w in 100 μL of DMEM containing 10% FCS in a low-attachment NunclonSphera 96-well ultra-low attachment plate (Thermo Scientific Nunc™, Rochester, NY, USA), to form multicellular tumor spheres, for 4 days. The formation and growth of tumor spheres were examined and imaged with an Olympus CKX53 microscope, using a 10× objective. MDA-MB-231 tumor spheres were treated by carefully adding 50 μL of the medium with fresh nutrient medium for control spheres or with compound-supplemented medium (50 μM) for treated spheres for another 72 h. The cytotoxicity of compounds toward the MDA-MB-231 tumor spheres was investigated by MTT assay.
The formation and growth of tumor spheroids were examined and imaged with an Olympus CKX53 microscope, using 4x objective. The cytotoxicity of compounds toward the MDA-MB-231 tumor spheroids was investigated by MTT assay.

[3] = target: T3, Human recombinant HDAC-3/NcoR2 (Homo sapiens, UniProt O15379); assay: HDAC-Glo I/II bioluminogenic enzyme assay, HDAC3; type: biochemical; parameters: purchased BPS Bioscience 50003; details: mean ± SD of three independent experiments; read-out: HDAC Inhibition, IC50 ± SD, HDAC3
[4] = target: T4, Human recombinant C-terminal His-tag-HDAC8 (Homo sapiens, UniProt Q9BY41); assay: HDAC-Glo I/II bioluminogenic enzyme assay, HDAC8; type: biochemical; details: mean ± SD of three independent experiments; read-out: HDAC Inhibition, IC50 ± SD, HDAC8
T4 construct: His (C); purchased BPS Bioscience 50008
T4 sequence (Q9BY41 1-377): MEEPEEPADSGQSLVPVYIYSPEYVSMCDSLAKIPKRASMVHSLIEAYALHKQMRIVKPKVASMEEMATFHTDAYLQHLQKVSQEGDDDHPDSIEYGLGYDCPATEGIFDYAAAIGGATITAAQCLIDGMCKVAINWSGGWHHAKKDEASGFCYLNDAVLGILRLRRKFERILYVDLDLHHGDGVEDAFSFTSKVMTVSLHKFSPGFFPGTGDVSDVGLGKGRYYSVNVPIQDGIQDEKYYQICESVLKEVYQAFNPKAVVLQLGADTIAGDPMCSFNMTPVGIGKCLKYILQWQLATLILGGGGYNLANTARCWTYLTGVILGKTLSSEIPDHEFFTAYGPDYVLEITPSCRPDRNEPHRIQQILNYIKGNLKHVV

MCF-7 cells = assay: Cell viability (MTT) assay, MCF-7; type: cell-based; details: Homo sapiens, MCF7, 48 h, read-out: Cytotoxic activity IC50 ± SD, MCF-7
Experimental: (§1) Human breast adenocarcinoma cells (MCF-7, ATCC® HTB-22™) and triple-negative breast cancer cells (MDA-MB-231, ATCC® HTB-26™) were obtained from the American Type Culture Collection (Rockville, MD, USA). Cells were maintained as a monolayer culture in DMEM:Ham’s 12 (1:1) medium (Sigma-Aldrich, St. Louis, MO, USA) supplemented with penicillin (192 U/mL), streptomycin (200 µg/mL), and 10% of heat-inactivated fetal calf serum (FCS). Cells were grown at 37 °C in 5% CO2 and humidified air atmosphere, by twice weekly subculture.
(§2) Cytotoxic activity of synthesized 1-benzhydryl-piperazine-based HDAC inhibitors was assessed on MDA-MB-231 and MCF-7 cells using an MTT assay. MDA-MB-231 (5 × 10^3 cells/well) and MCF-7 (5 × 10^3 cells/well) were treated with synthesized compounds in six different concentrations (100, 50, 25, 12.5, 6.25, and 3.13 μM), and each concentration was added in five replicates. MTT solution (3-(4,5-dimethylthiazol-2-yl)-2,5-diphenyltetrazolium bromide) (Sigma-Aldrich, St. Louis, USA) was added to each well (20 µL) after 48 h. After 4 h of incubation, 100 μL of 10% SDS was added in each well and incubated at 37 °C. On the next day, the absorbance at 570 nm was recorded. The ratio of absorbance (570 nm) values between treated and control cells multiplied by 100 was used to calculate cell survival (%). The concentration of synthesized HDAC inhibitors that reduced cell viability by 50% was defined as the IC50 value, and was compared to the vehicle control.

MDA-MB-231 cells [5] = assay: Apoptosis assay, Annexin V-FITC/7-AAD flow cytometry; type: cell-based, human; details: IC50 concentration
Experimental: Examined breast cancer cells (MDA-MB-231) were stained with annexin V–fluorescein isothiocyanate/and 7AAD (BD Pharmingen, San Diego, CA, USA), and the samples were prepared following the specifications given by manufacturer. The population of apoptotic cells was analyzed by flow cytometry using a FACS Calibur cytometer and Cell Quest computer software (Becton Dickinson, Heidelberg, Germany).

MDA-MB-231 cells [6] = assay: Cell viability (MTT) assay, MDA-MB-231; type: cell-based, human; details: Homo sapiens, MDA-MB-231, 48 h, read-out: Cytotoxic activity IC50 ± SD, MDA-MB-231
Experimental: as §1, §2

[7] = target: T3, Human recombinant HDAC-3/NcoR2; details: read-out: HDAC Inhibition, IC50, HDAC3; cited from earlier work
[8] = target: T2, Human recombinant C-ter-His-FLAG-HDAC1; parameters: method as in PMID 21832257; details: profiles of reference HDACi; read-out: HDAC Inhibition, IC50, HDAC1; cited from earlier work
[9] = target: T1, Human recombinant N-ter-GST-HDAC-6; details: read-out: HDAC Inhibition, IC50, HDAC6; profiles of reference HDACi; cited from earlier work
[10] = target: T4, Human recombinant C-terminal His-tag-HDAC8; parameters: method as in PMID 21832257; details: profiles of reference HDACi; read-out: HDAC Inhibition, IC50, HDAC8; cited from earlier work
[11] = test system: intersegmental blood vessels (ISVs) of Tg(fli1:EGFP) zebrafish embryos; assay: Anti-angiogenic activity in Tg(fli1:EGFP) zebrafish embryos; type: in vivo; details: 8b 6.25-50 µM; Suten effective dose 1.56 µM
Experimental: The inhibitory activity of 8b on angiogenesis was examined using embryos of the transgenic zebrafish Tg(fli1:EGFP) line with GFP-labeled endothelial cells, as previously described. Briefly, embryos at the 6–8 hpf stage were exposed to three non-toxic concentrations and incubated at 28 °C by 48 hpf. At 48 hpf, the treated embryos were anesthetized with 0.02% tricaine, imaged under a fluorescence microscope (Olympus BX51, Applied Imaging Corp., San Jose, CA, USA), and analyzed for the development of intersegmental blood vessels (ISVs). The experiment was performed three times using ten embryos per concentration. ISV lengths were measured using ImageJ program, and expressed as mean value with standard deviation. Inhibitory effect of the applied treatment was determined in relation to the control (DMSO-treated) group, arbitrarily set to 100%.

MDA-MB-231 cells [12] = assay: Cell cycle analysis, propidium iodide flow cytometry; type: cell-based, human; details: 72 h
Experimental: MDA-MB-231 cells were treated with tested compounds for specified time courses. After treatment, examined cells were washed in cold PBS and incubated for 30 min in 96% ethanol on ice, centrifuged, and incubated with 80 μL RNase A ([…]) and 50 μL propidium iodide (50 μg/mL) for 30 min at 37 °C. The cell cycle was analyzed by FACS Calibur E440 (Becton Dickinson) flow cytometer and Cell Quest software. Results are presented as a percentage of cell cycle phases.

[13] = 5 μM, mean ± standard error of triplicate

T2 sequence (Q13547 whole entry): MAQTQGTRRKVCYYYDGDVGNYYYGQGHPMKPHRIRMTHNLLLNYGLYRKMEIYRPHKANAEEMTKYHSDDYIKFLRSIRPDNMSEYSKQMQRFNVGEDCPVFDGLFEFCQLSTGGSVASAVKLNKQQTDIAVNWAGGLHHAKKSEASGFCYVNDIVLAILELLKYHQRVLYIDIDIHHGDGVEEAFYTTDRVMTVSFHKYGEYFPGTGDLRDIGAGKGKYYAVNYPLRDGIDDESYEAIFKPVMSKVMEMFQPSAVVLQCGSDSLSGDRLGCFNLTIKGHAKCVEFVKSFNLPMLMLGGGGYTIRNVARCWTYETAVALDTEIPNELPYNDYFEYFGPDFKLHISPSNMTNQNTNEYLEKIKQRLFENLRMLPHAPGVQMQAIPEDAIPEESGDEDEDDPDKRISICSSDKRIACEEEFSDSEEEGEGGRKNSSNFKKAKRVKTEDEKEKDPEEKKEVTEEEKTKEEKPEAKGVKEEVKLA
T3 sequence (O15379 whole entry): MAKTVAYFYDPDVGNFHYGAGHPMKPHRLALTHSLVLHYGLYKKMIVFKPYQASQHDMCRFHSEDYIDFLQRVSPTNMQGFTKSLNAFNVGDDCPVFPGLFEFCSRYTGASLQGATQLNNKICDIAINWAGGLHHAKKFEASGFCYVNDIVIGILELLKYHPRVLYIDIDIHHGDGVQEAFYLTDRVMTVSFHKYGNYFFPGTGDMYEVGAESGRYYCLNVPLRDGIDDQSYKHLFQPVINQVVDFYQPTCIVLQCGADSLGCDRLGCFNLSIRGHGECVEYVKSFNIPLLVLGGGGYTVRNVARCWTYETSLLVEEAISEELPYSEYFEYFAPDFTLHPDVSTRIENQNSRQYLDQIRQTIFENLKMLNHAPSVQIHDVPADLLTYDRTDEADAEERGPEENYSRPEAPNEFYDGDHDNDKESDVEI
T3 sequence (Q9Y618 395-489 partner limits assumed): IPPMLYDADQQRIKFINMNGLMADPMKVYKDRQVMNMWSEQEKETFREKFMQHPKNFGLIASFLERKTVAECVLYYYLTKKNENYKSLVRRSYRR

O=C(NO)c1cnc(NC2(c3ccccc3)CCC(F)(F)CC2)nc1 [ACY-1083]
IC50 (HDAC6): 0.003 µM

O=C(CCN1CCN(C(c2ccccc2)c2ccccc2)CC1)NO [Compound 3b, 3-(4-(diphenylmethyl)-piperazin-1-yl)-N-hydroxypropionamide]
inhibition at 5 µM [1, 13]: < 25%

O=C(CCCCN1CCN(C(c2ccccc2)c2ccccc2)CC1)NO [Compound 5b, 5-(4-(diphenylmethyl)-piperazin-1-yl)-N-hydroxypentanamide]
inhibition at 5 µM [1, 13]: < 25%

O=C(CCCCCN1CCN(C(c2ccccc2)c2ccccc2)CC1)NO [Compound 6b, 6-(4-(diphenylmethyl)-piperazin-1-yl)-N-hydroxyhexanamide]
IC50 [2]: 4.73 ± 0.67 µM
tumor sphere viability (MDA-MB-231 tumor spheres): mild decrease
sphere formation (MDA-MB-231 tumor spheres; co-culture 4 d, at higher concentrations): inhibit sphere formation to some extent
% HDAC6 Inhibition at 5 μM [1, 13]: 95.6 ± 0.9%
inhibition at 5 µM [1, 13]: > 90%
IC50 ([1]; mean ± SD of three independent experiments, read-out: HDAC Inhibition, IC50 ± SD, HDAC6): 0.186 ± 0.005 µM
Selectivity Ratio HDAC1/6 ([1]; ratio of IC50 values): 25.4
Selectivity Ratio HDAC3/6 ([1]; ratio of IC50 values): 10
Selectivity Ratio HDAC8/6 ([1]; ratio of IC50 values): 13.1
IC50 [3]: 1.86 ± 0.09 µM
IC50 [4]: 2.44 ± 0.51 µM
IC50 (MCF-7 cells): 84 ± 5.2 µM
programmed cell death (MDA-MB-231 cells [5]; 24 h): slight increase
early apoptotic cells (MDA-MB-231 cells [5]; 48 h): approximately 20%
early apoptotic cells (MDA-MB-231 cells [5]; 72 h): approximately 20%
IC50 (MDA-MB-231 cells [6]): 33.4 ± 2.79 µM

CCCC(=O)[O-].[Na+] [Sodium butyrate]
IC50 [7]: 4.8 µM
IC50 [8]: 8.3 µM
IC50 [9]: > 1000 µM
IC50 [10]: 10.4 µM

CCCC(CCC)C(=O)O [Valproic acid]
IC50 [8]: 660 µM
IC50 [9]: > 1000 µM

CCN(CC)CCNC(=O)c1c(C)[nH]c(/C=C2\C(=O)Nc3ccc(F)cc32)c1C [sunitinib-malate, reference compound]
toxic response in embryos at anti-angiogenic effective doses [11]: life-threatening pericardial edema

CN1CCc2c(c3ccccc3n2Cc2ccc(C(=O)NO)cc2)C1 [tubastatin A, reference compound]
tumor sphere viability (MDA-MB-231 tumor spheres): mild decrease
sphere formation and spheres viability (MDA-MB-231 tumor spheres; co-culture 50 μM, 4 d in sphere culture conditions): significantly inhibited
sub-G1 phase cells (MDA-MB-231 cells [12]): around 30%
IC50 (MCF-7 cells): 93.3 ± 9.4 µM
IC50 (MDA-MB-231 cells [6]): 20.8 ± 2.84 µM
